Laboratory results reported in ChEMBL document CHEMBL5247590, “Novel nitrogen mustard-artemisinin hybrids with potent anti-leukemia action through DNA damage and activation of GPx” (Eur J Med Chem, 2022).

Key:
[1] = tested on: HCT-116; assay: Antiproliferative activity against human HCT-116 cells assessed as cell growth inhibition incubated for 72 hrs by MTT assay; format: functional, cell-based; conditions: HCT-116, 72 h
[2] = tested on: A549; assay: Antiproliferative activity against human A549 cells assessed as cell growth inhibition incubated for 72 hrs by MTT assay; format: functional, cell-based; conditions: A549, 72 h
[3] = tested on: SH-SY5Y; assay: Antiproliferative activity against human SH-SY5Y cells assessed as cell growth inhibition incubated for 72 hrs by MTT assay; format: functional, cell-based
[4] = tested on: U-118-MG; assay: Antiproliferative activity against human U-118-MG cells assessed as cell growth inhibition incubated for 72 hrs by MTT assay; format: functional, cell-based
[5] = tested on: CCRF-CEM; assay: Antiproliferative activity against human CCRF-CEM cells assessed as cell growth inhibition incubated for 72 hrs by MTT assay; format: functional, cell-based
[6] = Antiproliferative activity against human L02 cells assessed as cell growth inhibition incubated for 72 hrs by MTT assay; format: toxicity, cell-based
[7] = tested on: HL-60; assay: Antiproliferative activity against human HL-60 cells assessed as cell growth inhibition incubated for 72 hrs by MTT assay; format: functional, cell-based; conditions: HL-60, 72 h
[8] = tested on: K562; assay: Antiproliferative activity against human K562 cells assessed as cell growth inhibition incubated for 72 hrs by MTT assay; format: functional, cell-based; conditions: K562, 72 h
[9] = Selectivity index, ratio of IC50 for human L02 cells to IC50 for human CCRF-CEM cells; format: toxicity; conditions: L02 cells and CCRF-CEM cells, read-out: Selectivity Index
[10] = Selectivity index, ratio of IC50 for human HL-60 cells to IC50 for human CCRF-CEM cells
[11] = Selectivity index, ratio of IC50 for human K562 cells to IC50 for human CCRF-CEM cells
[12] = Antitumor activity against human L02 cells assessed as cell growth inhibition; format: toxicity, cell-based
[13] = tested on: HL-60; assay: Antitumor activity against human HL-60 cells assessed as cell growth inhibition; format: functional, cell-based
[14] = Antitumor activity against PBMC cells (unknown origin) assessed as cell growth inhibition; format: functional, cell-based; conditions: Homo sapiens
[15] = tested on: Bel-7402; assay: Antitumor activity against human Bel-7402 cells assessed as cell growth inhibition; format: functional, cell-based

Structure (SMILES) | IC50 [1] | IC50 [2] | IC50 [3] | IC50 [4] | IC50 [5] | IC50 at 72 h [6] | IC50 [7] | IC50 [8] | selectivity ratio [9] | Selectivity Index [10] | Selectivity Index [11] | IC50 [12] | IC50 [13] | IC50 [14] | IC50 [15]
Cc1cc(C(=O)OC2O[C@@H]3O[C@@]4(C)CC[C@H]5[C@H](C)CC[C@@H]([C@H]2C)[C@@]35OO4)ccc1N(CCCl)CCCl (stereo not given in full) | 6.72 µM | 7.02 µM | > 40 µM | > 40 µM | 1.87 µM | 5 µM |  |  |  |  |  |  |  |  | 
C[C@@H]1CC[C@H]2[C@@H](C)C(OC(=O)CCc3ccc(N(CCCl)CCCl)cc3)O[C@@H]3O[C@@]4(C)CC[C@@H]1[C@]32OO4 (stereo not given in full) | 8.08 µM | > 40 µM | > 40 µM | > 40 µM | 4.13 µM | > 40 µM | 30.4 µM | 50.2 µM |  |  |  |  |  |  | 
C[C@@H]1CC[C@H]2[C@@H](C)C(OC(=O)CCCc3ccc(N(CCCl)CCCl)cc3)O[C@@H]3O[C@@]4(C)CC[C@@H]1[C@]32OO4 (stereo not given in full) | 12.3 µM | 14.9 µM | > 40 µM | > 40 µM | 1.38 µM | > 40 µM |  |  |  |  |  |  |  |  | 
C[C@@H]1CC[C@@H]2[C@]34OO[C@](C)(CC[C@@H]13)O[C@H]4O[C@]2(C)COC(=O)c1ccc(N(CCCl)CCCl)c(F)c1 | > 40 µM | > 40 µM | > 40 µM | > 40 µM | > 40 µM | > 40 µM |  |  |  |  |  |  |  |  | 
O=C(O)CCCc1ccc(N(CCCl)CCCl)cc1 [CHLORAMBUCIL] | > 40 µM | > 40 µM | > 40 µM | > 40 µM | 12 µM |  | 34.4 µM | > 100 µM | 8.79 | 24.1 | 1.05 |  |  |  | 
C[C@@H]1CC[C@@H]2[C@]34OO[C@](C)(CC[C@@H]13)O[C@H]4O[C@]2(C)COC(=O)Cc1ccc(N(CCCl)CCCl)cc1 | 40 µM | > 40 µM | > 40 µM | > 40 µM | 3.84 µM | > 40 µM | 20.9 µM | > 100 µM |  |  |  |  |  |  | 
COc1cccc2c1C(=O)c1c(O)c3c(c(O)c1C2=O)C[C@@](O)(C(=O)CO)C[C@@H]3O[C@H]1C[C@H](N)[C@H](O)[C@H](C)O1 [DOXORUBICIN] | 1.88 µM |  | 1.54 µM |  |  |  |  |  |  |  |  |  |  |  | 
O=C(OCCCOc1ccc(-c2cc(=O)c3c(O)c(O)c(O)cc3o2)cc1)c1ccc(N(CCCl)CCCl)cc1 |  |  |  |  |  |  |  |  |  |  |  | > 50 µM |  |  | 
COC(=O)[C@H](Cc1ccc(N(CCCl)CCCl)cc1)NC(=O)CCC(=O)OCCCOCCCn1c2c(c3ccccc31)CCN1C(=O)c3ccccc3N(C)[C@H]21 |  |  |  |  |  |  |  |  |  |  |  |  | 0.5 µM | > 200 µM | 
C[C@@H]1CC[C@H]2[C@@H](C)C(OC(=O)c3cccc(N(CCCl)CCCl)c3)O[C@@H]3O[C@@]4(C)CC[C@@H]1[C@]32OO4 (stereo not given in full) |  | 3.24 µM | > 40 µM | > 40 µM | > 40 µM | > 40 µM |  |  |  |  |  |  |  |  | 
Cc1cc(C(=O)OC[C@@]2(C)O[C@@H]3O[C@@]4(C)CC[C@H]5[C@H](C)CC[C@@H]2[C@@]35OO4)ccc1N(CCCl)CCCl | 4.22 µM | 7.03 µM | > 40 µM | > 40 µM | 0.55 µM | 1.87 µM | 2.97 µM | 0.589 µM | 3.37 | 0.63 | 3.18 |  |  |  | 
C[C@@H]1CC[C@@H]2[C@]34OO[C@](C)(CC[C@@H]13)O[C@H]4O[C@]2(C)COC(=O)CCc1ccc(N(CCCl)CCCl)cc1 | 20.8 µM | > 40 µM | > 40 µM | > 40 µM | 8.81 µM | > 40 µM |  |  |  |  |  |  |  |  | 
C[C@@H]1CC[C@@H]2[C@]34OO[C@](C)(CC[C@@H]13)O[C@H]4O[C@]2(C)COC(=O)c1ccccc1N(CCCl)CCCl | 11.8 µM | 5.79 µM | 22.1 µM | > 40 µM | 1.48 µM | 7.68 µM | 0.789 µM | 9.61 µM | 5.19 | 9.73 | 0.8 |  |  |  | 
C[C@@H]1CC[C@@H]2[C@]34OO[C@](C)(CC[C@@H]13)O[C@H]4O[C@]2(C)COC(=O)c1ccc(N(CCCl)CCCl)cc1 | 7.96 µM | 5.24 µM | > 40 µM | > 40 µM | 4.51 µM | > 40 µM |  |  |  |  |  |  |  |  | 
C=C1C(=O)[C@@]23C(=O)O[C@H]4CCC(C)(C)[C@H]5[C@H](O)OC[C@@]45[C@@H]2CC[C@@H]1[C@H]3OC(=O)c1ccc(N(CCCl)CCCl)cc1 |  |  |  |  |  |  |  |  |  |  |  | > 100 µM |  |  | 
C[C@@H]1CC[C@H]2[C@@H](C)C(OC(=O)Cc3ccc(N(CCCl)CCCl)cc3)O[C@@H]3O[C@@]4(C)CC[C@@H]1[C@]32OO4 (stereo not given in full) | 5.89 µM | 12.7 µM | > 40 µM | > 40 µM | 1.57 µM | 15.9 µM | 11.2 µM | 15.5 µM |  |  |  |  |  |  | 
C[C@@H]1CC[C@@H]2[C@]34OO[C@](C)(CC[C@@H]13)O[C@H]4O[C@]2(C)COC(=O)CCCc1ccc(N(CCCl)CCCl)cc1 | > 40 µM | > 40 µM | > 40 µM | > 40 µM | 25.3 µM | > 40 µM |  |  |  |  |  |  |  |  | 
C[C@H]1[C@@H](O)O[C@@H]2O[C@@]3(C)CC[C@H]4[C@H](C)CC[C@@H]1[C@@]24OO3 [ARTENIMOL] | > 40 µM | > 40 µM | > 40 µM |  | 5.13 µM | 24.3 µM | 61.2 µM | 21.8 µM |  |  |  |  |  |  | 
C=C1C(=O)[C@]23[C@H](OC(=O)c4ccc(N(CCCl)CCCl)cc4)[C@H]1CC[C@H]2[C@@]12CO[C@@]3(O)[C@@H](O)[C@@H]1C(C)(C)CC[C@@H]2O |  |  |  |  |  |  |  |  |  |  |  | 4.03 µM |  |  | 0.5 µM
C[C@@H]1CC[C@H]2[C@@H](C)C(OC(=O)c3ccccc3N(CCCl)CCCl)O[C@@H]3O[C@@]4(C)CC[C@@H]1[C@]32OO4 (stereo not given in full) | 25.6 µM | 8.22 µM | > 40 µM | > 40 µM | 3.41 µM | 8.24 µM |  |  |  |  |  |  |  |  | 
C[C@@H]1CC[C@@H]2[C@]34OO[C@](C)(CC[C@@H]13)O[C@H]4O[C@]2(C)COC(=O)c1cccc(N(CCCl)CCCl)c1 | 8.42 µM | > 40 µM | > 40 µM | 22.1 µM | > 40 µM | 32 µM |  |  |  |  |  |  |  |  | 
C[C@@H]1CC[C@H]2[C@@H](C)C(OC(=O)c3ccc(N(CCCl)CCCl)c(F)c3)O[C@@H]3O[C@@]4(C)CC[C@@H]1[C@]32OO4 (stereo not given in full) | 4.19 µM | 8.59 µM | > 40 µM | > 40 µM | 24.7 µM | > 40 µM |  |  |  |  |  |  |  |  | 
